# Key:
# M-Ras [1] = experiment: M-Ras induction in mitogen stimulated splenocytes (RT-PCR); format: cell-based, DBA2 mouse; settings: DBA2 splenocytes, 5 ug/ml concanavalin A, 10 μg/ml aminosterol, 24 hours
# Description: Splenocytes from the DBA2 bronchial hyperresponsive mouse were treated with aminosterol compounds to test for their ability to block the induction of M-Ras in response to mitogens. This group of aminosterols was identified from the liver of the dogfish shark and as a class appear to be antiproliferative. This series of aminosterols was assayed for their ability to inhibit M-Ras expression and TH2 activity in mitogen stimulated splenocytes from the DBA2 mouse.
# Splenocytes were isolated from naive DBA2 mice by aseptic removal of spleens from anesthetized mice. Spleens were then minced by sterilized scissors and tissue was passed through a sterilized #60 wire mesh sieve. Cells were resuspended in RPMI medium and washed twice in the same medium. Cells were then resuspended in lysis buffer (4.15 g NaCl, 0.5 g KHCO3, 0.019 g EDTA in 500 ml of dH2O) to lyse red blood cells. Cells were incubated at 37° C. for 5 minutes and resuspended in RPMI plus heat inactivated 10% fetal bovine serum. Cells were then spun down and resuspended in RPMI growth media (as above) plus 5 ug/ml of concanavalin A. Cell cultures were treated with 10 μg/ml of the aminosterol compounds for 24 hours and were then harvested for RNA isolation using the Trizol method described by the manufacturer (Gibco-BRL). […]
# TS2 cells [2] = experiment: Proliferation of TS2 cells with lovastatin (3H-thymidine incorporation); format: cell-based, murine; settings: Mus musculus, 72 h; IL-2 or IL-9 5 ng/ml, different concentrations of lovastatin, three days; maximal inhibition; read-out: inhibition of cellular proliferation of TS2 cells as compared to untreated cells
# Description: To further test the role of M-Ras in IL-9 signaling, yet another IL-9 responsive cell line was treated with the farnesyl transferase inhibitor lovastatin to determine if the Ras pathway was utilized for proliferation. TS2 cells were washed three times and plated in 96-well plates at a density of 1,000 cells per well. IL-2 or IL-9 was added successively at a concentration of 5 ng/ml together with different concentrations of lovastatin as indicated. DMSO was included as the vehicle control. After three days, the rate of proliferation was determined by ^3H-thymidine incorporation ([…] per well) and percent of inhibition was obtained from the ratio between treated and untreated cells.
# M-Ras [3] = experiment: M-Ras prenylation in transfected BW5147 cells (immunoprecipitation, SDS-PAGE migration); format: cell-based, murine; settings: BW5147 cells with pEF-BOS-M-Ras, 4 mg/ml lovastatin, three days, versus untreated
# Description: BW5147, a murine thyoma cell line that grows in the absence of any cytokine, was stably transfected with an expression vector containing wild type M-Ras cDNA (pEF-BOS-M-Ras). After two weeks of selection in 3 μg/ml of Puromycin, cells were treated for three days with different compounds previously reported to work as inhibitors of p21 Ras prenylation. Cells were then harvested and proteins were extracted and immunoprecipitated with a rabbit antibody (JAL4) specific for M-Ras. Immunoprecipitates were electrophoretically resolved by SDS-PAGE (18%) and transferred to PVDF membrane. Immunoblots were successively probed with JAL4 antibody (1:1500 dilution) to detect the expression and migratory pattern of M-Ras protein. The non-prenylated form of p21 Ras migrates slower than the fully processed form. […] In contrast, cells transfected with pEF-BOS-M-Ras overexpressed the M-Ras protein.
# TS1-RA3 cells = experiment: IL-9 induced proliferation of TS1-RA3 cells (acid phosphatase assay); format: cell-based, murine; settings: grown in IL-9, varying amounts of manumycin A, 4 days; maximal inhibition
# Description: Ras molecules have been previously shown to function after prenlylation via farnesyl transferase and subsequent attachment to the inner cytoplasmic membrane. To test the role of M-Ras in IL-9 signaling, IL-9 responsive cells were treated with the farnesyl transferase inhibitor manumycin A in a proliferation assay to determine if the Ras pathway was utilized for proliferation. TS1-RA3 cells, which are a murine TH2 lymphocyte cell line expressing human IL-9 receptor by a transfected expression construct, were grown in the presence of IL-9 and in the absence or in varying amounts of manumycin A for 4 days.
# p38 MAPK = p38 MAPK (Homo sapiens, UniProt Q16539); settings: Lee et al., 1994; Gallagher et al., 1997; cited from earlier work
# TS2 cells [4] = experiment: Cytokine-induced proliferation of TS2 cells (tritiated thymidine); format: cell-based, murine
# Description: TS2 cells were grown in DMEM medium supplemented with 10% fetal calf serum, 50 μM 2-mercaptoethanol, 0.55 mM L-arginine, 0.24 mM L-asparagine and 1.25 mM L-glutamine.
# (§1) The murine T-cell line TS2 grows in response to IL-2 and IL-9 in vitro. […] Cells which were maintained in medium described in Example 1 plus IL-2, were washed once with phosphate-buffered saline and plated at 3000 cells per well in the presence of 200 U/ml IL-2 or 200 U/ml of IL-9. Cells were grown for three days in the presence of PD98959 (10 μM) and then pulsed for four hours with tritiated thymidine. The cells were then harvested onto glass fiber filters and analyzed by scintillation counting.
# The data is shown as percent growth as compared to cytokine only.
# [5] = test system: ERK1, 2 or 5 family or JNK family of MAPK; settings: Lee et al., 1994; Gallagher et al., 1997; cited from earlier work
# BaF3 cells = experiment: Proliferation of BaF3 cells transfected with wild-type or constitutively active mutant M-Ras; format: cell-based, murine
# Description: To assess the ability of M-Ras to be able to exert a constitutive activity on cellular proliferation and to abrogate the requirement of cytokines in a cytokine-dependent cell line, site directed mutagenesis was used to generate mutant M-Ras proteins to assess their activities. Alignment of M-Ras to the H- and K-Ras proteins permitted identification of potential residues that may result in constitutive activation of M-Ras. Two mutants were prepared at codon 22, substituting a Val or Lys for Gly while another mutant was prepared at codon 71 substituting a Lys for Glu. These substitutions had been previously shown to result in active Ras molecules (FIG. 8). […] Mutant Ras cDNA was then cloned into the NotI-XbaI cloning site of the mammalian expression vector pEF-BOS which contains a puromycin resistance gene for selection of transfected cells. These expression vectors were then transfected into the IL-3 dependent cell line BaF3 and it was assayed for cytokine-independent growth. BaF3 cells were transfected with the three mutant M-Ras vectors, the wild type M-Ras vector or an empty vector by electroporation using the Gene Pulsar II (Bio-Rad). The settings used were […], 74 ohms and 300 volts with 50 μg of sterile DNA. Pooled transfected cells were selected with puromycin (3 μg/ml) and M-Ras expression was determined by Northern blot. All constructs expressed equivalent amounts of exogenous M-Ras.
# as §1, with “vitro. […] In addition, the MAPK inhibitor PD98059 has the ability to block M-Ras signaling as described in Example 10.” for “vitro.”, “Cells were grown for three days in the presence of PD98959 (10 μM) and then pulsed for four hours with tritiated thymidine.” left out
# Cells were plated at 3000 cells/well in the presence or absence of IL-3 and 10 μm PD98059 and assessed for proliferation as described in Example 12. […]
# [6] = test system: Elk (a target of the MAPK pathway); experiment: PathDetect signal transduction pathway reporting system (GAL4-Elk luciferase reporter) with activated M-Ras mutants; format: cell-based; settings: HEK293 cells, GAL4-Elk fusion
# Source text: In order to characterize the pathway stimulated by activated M-Ras, applicants tested the ability of activated mutants to up-regulate the mitogen-activated protein kinase (MAPK) pathway or the c-Jun N-terminal kinase (JNK) pathway using an in vitro signal transduction pathway reporting system (FIG. 11). This luciferase-based assay allows for indirect measurement of Elk (target of the MAPK pathway) or Jun (target of the JNK pathway) protein activation. Activated MEK1, which activates Elk, served as a positive control for the MAPK pathway whereas activated MEKK was used as a positive control for the JNK pathway because it activates Jun.
# The results of this experiment are shown in FIG. 12 for the MAPK pathway. […] In addition, M-Ras-1, M-Ras-2 and M-Ras-3 mutants activated Elk, indicating M-Ras induced activation of the MAPK pathway.
# To characterize the activation pathway triggered by activated M-Ras, the ability of the M-Ras mutants described in Example 8 to activate the mitogen-activated protein kinase (MAPK) pathway or the c-JUN N-terminal Kinase (JNK) pathway was tested using the PathDetect in vivo signal transduction pathway reporting system (Stratagene). […] As expected, significant luciferase activity was detected when cells expressed the GAL4-Elk fusion protein together with activated MEK-1. […]
# Sequence of p38 MAPK (Q16539 whole entry): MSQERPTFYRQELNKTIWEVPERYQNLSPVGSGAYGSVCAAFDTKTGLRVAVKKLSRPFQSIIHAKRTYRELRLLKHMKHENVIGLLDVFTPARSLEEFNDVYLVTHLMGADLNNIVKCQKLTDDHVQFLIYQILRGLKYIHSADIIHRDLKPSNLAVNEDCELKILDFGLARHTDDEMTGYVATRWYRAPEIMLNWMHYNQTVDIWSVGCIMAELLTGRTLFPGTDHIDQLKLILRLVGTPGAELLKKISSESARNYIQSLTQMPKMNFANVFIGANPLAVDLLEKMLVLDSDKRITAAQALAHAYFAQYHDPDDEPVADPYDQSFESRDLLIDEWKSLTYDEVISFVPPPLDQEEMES
structure (smiles),measurement,setting,value
CC(C)[C@@H](CC[C@@H](C)[C@H]1CC[C@H]2[C@@H]3[C@H](O)C[C@H]4C[C@@H](NCCCNCCCCNCCCN)CC[C@]4(C)[C@H]3CC[C@]12C)OS(=O)(=O)O [compound 1436],expression of M-Ras,M-Ras [1],no effect
CC[C@H](C)C(=O)O[C@H]1C[C@@H](C)C=C2C=C[C@H](C)[C@H](CC[C@@H]3C[C@@H](O)CC(=O)O3)[C@H]21 [lovastatin],inhibition at 0.005 µg/mL,TS2 cells [2],≤ 95%
same,migration of M-Ras protein on SDS-PAGE (non-prenylated form migrates slower),M-Ras [3],migrated higher
CCCC[C@@H](C)/C=C(C)/C=C(\C)C(=O)NC1=C[C@@](O)(/C=C/C=C/C=C/C(=O)NC2=C(O)CCC2=O)[C@@H]2O[C@@H]2C1=O [manumycin A],inhibition of cellular proliferation of TS1-RA3 cells as compared to untreated cells,TS1-RA3 cells,up to 76%
Oc1ccc(-c2nc(-c3ccncc3)c(-c3ccc(F)cc3)[nH]2)cc1 [SB202190],inhibition of p38 MAPK,p38 MAPK,specifically inhibit
same,ability of TS2 cells to proliferate in response to IL-2,"TS2 cells [4]; IL-2, percent growth compared to cytokine only",not
same,ability of TS2 cells to proliferate in response to IL-9,"TS2 cells [4]; IL-9, percent growth compared to cytokine only",blocked
same,"inhibition of ERK1, 2 or 5 family or JNK family of MAPK",[5],not
COc1cccc(-c2cc(=O)c3ccccc3o2)c1N [PD98059],growth of cells grown in IL-2,"TS2 cells [4]; 200 U/ml IL-2, inhibitor 10 μM, three days",no inhibitory activity
same,growth of cells grown in IL-9,"TS2 cells [4]; 200 U/ml IL-9, inhibitor 10 μM, three days",growth inhibited
same,proliferation of cells expressing the mutant M-Ras gene,"BaF3 cells; BaF3, absence of IL-3, 10 μm PD98059",blocked
same,IL-3 induced cellular proliferation of M-Ras wild-type transfected cells,"BaF3 cells; BaF3, with IL-3, 10 μm PD98059",no activity
same,proliferation of mutant M-Ras cells grown with IL-3 (cellular toxicity check),"BaF3 cells; BaF3, with IL-3, 10 μm PD98059",could proliferate
same,"luciferase induction by M-Ras-1, M-Ras-2 and M-Ras-3 mutants",[6],blocked
